The text below walks through data of patent US20250388602A1 (Genase Therapeutics B.V., priority 2022, published 2025).

Data set [1] relates to MOLM-13 cells. Nature of the data set: MOLM-13 cell viability (Assay B), Cell Titer-Glo. In kind it is cell-based. A digest of the protocol:
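Cells at 1,000 per well in RPMI/10% FBS were exposed to compound (10E-5 to 6E-12 M), with or without 100 μM uridine, for 72 h. Viability was read by CellTiter-Glo luminescence. Duplicates were run, and potency was taken from two independent experiments.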
A general note: In ATP-based viability assays light output follows the ATP content of the culture.

Data set [2] has as its system ZIKV. Nature of the data set: anti-ZIKV CPE reduction assay in A549 cells (MTS). In kind it is cell-based, ZIKV MR766 prototype strain. On the procedure: The lung cancer epithelial cell line A549 was obtained from the American Type Culture Collection (ATCC; Rockville, MD, USA) and cultured in MEM medium (Gibco BRL, Gaithersburg, MD, USA) with 10% fetal calf serum (FCS; Gibco BRL), 2 mM L-glutamine (Gibco BRL) and 0.075% sodium bicarbonate (Gibco BRL).
The ZIKV MR766 prototype strain and the DENV-2 laboratory-adapted New Guinea C strain were obtained from ATCC and stocks were grown in the C6/36 mosquito cell line (ATCC). Viral stock titers were determined using plaque assay in BHK-21 cells (ATCC).
The anti-ZIKV and anti-DENV-2 activity in A549 cells was determined using a tetrazolium-based colorimetric cytopathic effect (CPE) reduction assay. This assay has been described in detail before (Virology. 2021; doi.org/10.1016/j.virol.2021.07.003). […] Three hours after MTS incubation, virus was inactivated using 0.5% Triton X-100 (Thermo Fisher Scientific, Waltham, MA, USA) and the absorbance was then recorded at 490 nm with a 96-well plate reader and compared with four cell control replicates (cells without virus and drugs) and four virus control wells (cells with virus but without drug). […] Absorbance was recorded using the VersaMax ELISA™ microplate reader (Molecular Devices) and analyzed with the Softmax Pro® software (Molecular Devices, Version 4.0). […]

A short description of data set [3]: cytotoxicity in mock-infected A549 cells (MTS). The following applies: human. In kind it is cell-based.
Procedure: The anti-ZIKV and anti-DENV-2 activity in A549 cells was determined using a tetrazolium-based colorimetric cytopathic effect (CPE) reduction assay. […] A549 cells (1.5×10^4 cells in 100 μL cell culture medium) were seeded in 96-well flat bottom plates (TPP, Trasadingen, Switzerland) and incubated overnight to allow the cells to grow to confluency. Drug dilutions were prepared in culture medium where FCS concentration was decreased to 2% and threefold diluted in the plates (in duplicate). […] Three hours after MTS incubation, virus was inactivated using 0.5% Triton X-100 (Thermo Fisher Scientific, Waltham, MA, USA) and the absorbance was then recorded at 490 nm with a 96-well plate reader and compared with four cell control replicates (cells without virus and drugs) and four virus control wells (cells with virus but without drug). […] Absorbance was recorded using the VersaMax ELISA™ microplate reader (Molecular Devices) and analyzed with the Softmax Pro® software (Molecular Devices, Version 4.0). […]
Data set [4] is described as follows: in vitro.
The target of data set [5] is CYP2E1 (Homo sapiens (Human), UniProt P05181). Nature of the data set: biochemical. It counts as in vitro ADME. On the procedure: CYP inhibition: Co-incubation of compounds with P450 enzyme-selective substrates was performed using pooled human liver microsomes (Cat. No. H0610, Xenotech), to determine their potential to cause drug-drug interactions. The assay was performed in duplicate. The formation of acetaminophen, 7′-hydoxycoumarin, hydrobupropion, N-desethylamodiaquine, 4′-hydroxydiclofenac, 4′-hydroxymephenytoin, 1′-hydroxybufuralol, 6″-hydroxychlorzoxazone were quantified as markers for CYP1A2, CYP2A6, […], CYP2C8, CYP2C9, CYP2C19, […], CYP2E1, respectively. CYP3A4 inhibition was measured using 2 substrates, measuring the formation of […] (3A4-T), and 1′-hydroxymidazolam (3A4-M). The incubation was carried out in 96 deep well plates each well containing: 179 μL of the master solution (0.2 mg/mL microsomes plus CYP substrate (see below for final substrate concentration and incubation time for the different CYP assays)) in 100 mM phosphate buffer and 1 μL of the compound working solution or vehicle. The final concentrations of the compounds in the assay was 30 μM when using a single dose or 0.1, 0.3, 1, 3, 10 and 30 μM for a dose response.
The incubation plate was placed into a water bath and pre-warmed at 37° C. for 5 minutes before the reactions were started by the addition of 20 μL of 10 mM NADPH solution and incubated at 37° C. for the time listed above. The reaction was stopped by addition of 1.5 volumes (300 μL) of cold ACN containing 3% formic acid and 200 nM tolbutamide, 200 nM aprozolam and 200 nM labalol. The plate was centrifuged at 3,220 g for 50 minutes and then 200 μL of the supernatant was transferred to the analysis plate for LC/MS/MS analysis. The respective metabolite formation from each probe substrate was compared with that observed for the solvent control incubations.

CYP2E1, sequence (P05181 whole entry): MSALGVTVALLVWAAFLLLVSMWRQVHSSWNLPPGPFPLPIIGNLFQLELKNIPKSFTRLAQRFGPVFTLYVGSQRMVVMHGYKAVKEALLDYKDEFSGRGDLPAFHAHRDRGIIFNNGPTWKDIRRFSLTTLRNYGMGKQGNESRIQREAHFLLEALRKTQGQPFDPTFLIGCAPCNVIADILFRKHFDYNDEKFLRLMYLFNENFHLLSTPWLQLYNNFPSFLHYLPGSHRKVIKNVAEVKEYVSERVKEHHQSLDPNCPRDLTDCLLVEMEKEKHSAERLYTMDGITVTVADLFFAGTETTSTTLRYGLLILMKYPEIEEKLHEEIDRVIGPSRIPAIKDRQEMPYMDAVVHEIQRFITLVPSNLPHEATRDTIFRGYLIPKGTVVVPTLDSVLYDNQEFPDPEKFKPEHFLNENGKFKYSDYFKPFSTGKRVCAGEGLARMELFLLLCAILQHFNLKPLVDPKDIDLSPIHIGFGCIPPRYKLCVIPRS

`COc1ccc(F)c(-n2ncc3c2COC[C@H]3NC(=O)c2ncn3c2CCCC3)c1Cl` (single isomer, unassigned) [Ex-9]: the IC50 (commonly the concentration needed to halve the response being measured) in data set [1] (Homo sapiens, MOLM-13, 72 hours, bins ≥10 nM-<100 nM and <10 nM, read-out: IC50 MOLM13 inhibition activity) was under 10 nM; in data set [2] (Zika virus, 72 h, MOI 1, 3 d of infection) it was 9.3 ± 2 nM; in data set [5] it was over 30000 nM. Besides, the “MOLM13 cell growth and/or viability (FIG. 2)” value in data set [1] (absence of uridine) is “reduce MOLM13 cell growth and/or viability”. In addition, in data set [1] (presence of 100 μM uridine), the “effect on MOLM13 cell growth and/or viability on addition of excess uridine (FIG. 2)” value was “largely prevented”. For the same compound, the “antiviral activity against ZIKV” value in data set [2] is “demonstrating antiviral activity”. Further, the cytotoxic concentration (CC50) (as a rule, the concentration giving 50% cytotoxicity) in data set [3] turned out to be 3650 ± 100 nM. The HLM % remaining in data set [4] (% remaining at 60 min, 1 μM) is given as 100%. Further, the half-life (in general, the time in which the quantity being followed falls by half) at 1 μM in data set [4] (both, human, pooled liver microsomes) is over 6.08 h.
